Test results from patent US20250388810A1, “Kit for Sustaining Luminescence of Luminescent Substrate and Method for Sustaining Luminescence of Luminescent Substrate” (SHIMADZU CORPORATION, priority 2024, published 2025).
“Also recorded” adds a separate entry of the source.

Assays:
Type in all cases: biochemical
picALuc [1] = test: Experiment 7: inhibition of luminescence reaction by substrate metabolites with or without NP-40; conditions: metabolite 1 μM; for luminescence value on addition of substrate metabolite: picALuc 100 nM, nCTZ 8 μM, 60 minutes incubation; for suppression of the decreased ratio in the luminescence value by addition of a surfactant: NP-40 (+) versus NP-40 (−)
Procedure: CTM, CTO, or CTMD was added to a mixture solution having the composition described below so that a final concentration was 0 M or 1 μM, followed by incubation at room temperature for 60 minutes. The luminescence value was then measured. At this time, as the measurement device, a GloMax (registered trademark) Navigator Microplate Luminometer (manufactured by Promega) was used. The time indicating the maximum luminescence value (time from addition of the substrate) varies greatly depending on each condition. Therefore, in this experiment, the luminescence value immediately after the addition of the substrate was compared, rather than the maximum luminescence value, so that the amount of the substrate consumed due to the luminescence reaction and the amount of the substrate oxidation due to elapsed time were not taken into consideration. FIG. 10A is graphs showing the correlation between the relative light unit (vertical axis) and the presence or absence of the surfactant and the substrate metabolites (horizontal axis). FIG. 10B is graphs showing the relationship between the rate of decrease in the amount of luminescence due to the addition of the substrate metabolites (vertical axis) and the presence or absence of the surfactant (horizontal axis).
NP-40 (final concentration 0% or 0.01%) picALuc (final concentration 100 nM) nCTZ (final concentration 8 μM) […]
Buffer (137 mM NaCl, 9.6 mM KH2PO4, 2.7 mM KCl, pH 7.0, remainder)

NanoLuc = target: T1, NanoLuc (Oplophorus gracilirostris, UniProt Q9GV45, A31E/A60N/A81I/F95D/I117V/K70R/L54V/L99Q/M102K/N193R/P142E/Q151K/Q38R/Q45L/V71I/Y165I); test: Experiment 2: luminescence reaction of NanoLuc and CTZh in the presence of surfactant and ethanol; conditions: luminescent enzyme NanoLuc for example 10 nM, CTZh, EtOH
T1 construct: purchased Promega
T1 sequence (Q9GV45 other isoform, or with tags, fused parts or gaps with the stated changes): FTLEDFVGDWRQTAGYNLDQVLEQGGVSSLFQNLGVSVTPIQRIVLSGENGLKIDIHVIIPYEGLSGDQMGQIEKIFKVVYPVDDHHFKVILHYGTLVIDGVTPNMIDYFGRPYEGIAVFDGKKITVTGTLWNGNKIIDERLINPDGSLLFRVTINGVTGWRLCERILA
Procedure: The experiment was performed in the same manner as in Experiment 1 except that NanoLuc (manufactured by Promega) was used as a luminescent enzyme and NP-40 or CHAPS was used as a surfactant. FIG. 3A is graphs showing a change in luminescence intensity over time. […] FIG. 3B is graphs showing the correlation between the maximum value of the normalized luminescence intensity (vertical axis) and the concentration of the luminescent enzyme and the concentration of the surfactant (horizontal axis). FIG. 3C is graphs showing the correlation between the half-life of the luminescence reaction (horizontal axis) and the concentration of the luminescent enzyme and the concentration of the surfactant (vertical axis).

picALuc [2] = test: Experiment 3: luminescence reaction of picALuc and nCTZ with methanol and NP-40; conditions: picALuc 100 nM, nCTZ 8 μM, methanol
Procedure: The experiment was performed in the same manner as in Experiment 1 except that methanol (MeOH) manufactured by FUJIFILM Wako Pure Chemical Corporation) was used as an alcohol, NP-40 was used as a surfactant, and native coelenterazine (nCTZ, final concentration 8 μM) (manufactured by FUJIFILM Wako Pure Chemical Corporation) was used as a luminescent substrate. At this time, the final concentration of the luminescent enzyme (picALuc) was set to 100 nM. FIG. 4 is a graph showing a change in luminescence intensity over time.

picALuc [3] = test: Experiment 8: LC-MS of substrate consumed and substrate metabolites produced in luminescence reaction; conditions: NP-40 0.01% versus 0%, picALuc 100 nM, nCTZ 8 μM
Procedure: By LC-MS analysis of a reaction solution containing picALuc and nCTZ, the effect of a surfactant (NP-40) on the amount of the substrate (nCTZ) consumed and the amount of the substrate metabolites (CTM, CTO, CTMD) produced was examined.
A substrate solution (100 μL) having the following composition was added to an enzyme solution (100 μL) having the following composition, to prepare a reaction solution.
At 0 minutes of the luminescence reaction (before the addition of the substrate solution), 10 minutes after the luminescence reaction, or 60 minutes after the luminescence reaction, 1/1000 (volume ratio) of hydrochloric acid was added to the reaction solution to stop the luminescence reaction, and methanol, which was five times the amount of the reaction solution, was added, followed by centrifugation. Then, the supernatant was collected to remove the luminescent enzyme. After that, each reaction solution was analyzed with an LC-MS device to measure the respective amounts of nCTZ, CTM, CTO, and CTMD (FIG. 11). The measurement conditions at this time are as follows.
It was thought that the amount of nCTZ was greater than the actual amount when NP-40 was added due to ion effects. Therefore, it was normalized to the amount of nCTZ when NP-40 was not added. Furthermore, the fact that CTM, CTO, and CTMD were already present in the reaction solution at 0 minutes of luminescence reaction is thought to be caused by converting nCTZ to these compounds during storage of nCTZ. Therefore, the amount of nCTZ consumed and the respective amounts of CTM, CTO, and CTMD produced were calculated by subtracting the amount of each component that was present before the reaction (FIG. 12).

picALuc [4] = test: Experiment 1: luminescence reaction of picALuc and CTZh in the presence of surfactant and ethanol; conditions: luminescent enzyme picALuc for example 1 nM, CTZh, EtOH
Procedure: When a luminescent enzyme and a luminescent substrate were allowed to react in the presence of a surfactant and an alcohol, how the luminescence characteristics of the luminescent substrate change was examined. First, the luminescent enzyme and the surfactant described below were diluted in a buffer (137 mM NaCl, 9.6 mM KH2PO4, 2.7 mM KCl, pH 7.0) to obtain an enzyme solution with different concentrations of the luminescent enzyme and the surfactant.
Also, coelenterazine h (CTZh), which is the luminescent substrate, was dissolved in ethanol (EtOH) so that a final concentration thereof was 2.4 mM, to obtain an ethanol solution of CTZh. […]
Then, 50 μL of the enzyme solution and 50 μL of the substrate solution were mixed. The luminescence value was measured immediately after mixing. […] FIG. 1A is graphs showing a change in luminescence intensity over time. […] FIG. 1B is graphs showing the correlation between the maximum value of the normalized luminescence intensity (vertical axis) and the concentration of the luminescent enzyme and the concentration of the surfactant (horizontal axis). FIG. 1C is graphs showing the correlation between the half-life of the luminescence reaction (horizontal axis) and the concentration of the luminescent enzyme and the concentration of the surfactant (vertical axis). […]

[5] = system: streptavidin-fused picALuc; test: Experiment 4: simulated detection system, biotinylated BSA detected with streptavidin-fused picALuc
Procedure: In this experiment, as a simulated detection system, biotinylated bovine serum albumin (BSA) was immobilized on a base of a 96-well plate and detection was performed using streptavidin-fused picALuc (FIG. 6A). Specifically, 100 μL of a biotinylated BSA solution (final concentration 10 μg/mL) was first added to each well. After each well was washed with a washing buffer (PBST (0.1% Tween)), blocking was performed by addition of 200 μL of a blocking buffer (20% Immnoblock (manufactured by KAC Co., ltd.) in PBS) to each well. After each well was washed with a washing buffer again, 100 μL of a streptavidin-fused picALuc solution (final concentration 1 μg/mL, diluted with 5% Immunoblock in PBST) was added to each well. Each well was washed with a washing buffer.
Then, immediately before the luminescent substrate was added, NP-40 was diluted with a buffer (PBS) so that the final concentration was 0.002 to 0.2%, and 100 μL of the resulting diluted solution was added to each well. Next, 100 μL of the substrate solution prepared in the same manner as in Experiment 1 was added to each well. The luminescence value was measured immediately after the substrate solution was added. At this time, as the measurement device, GloMax (registered trademark) Navigator Microplate Luminometer (manufactured by Promega) was used. FIG. 6B is a graph showing a change in luminescence intensity over time. […] FIG. 6C is a graph showing the correlation between the maximum value of the relative light unit (vertical axis) and the concentration of the surfactant (horizontal axis). FIG. 6D is a graph showing the correlation between the integrated value of the relative light unit (vertical axis) and the concentration of the surfactant (horizontal axis). The integrated value is the integrated value obtained for 30 minutes after the addition of the substrate solution.

Compound	luminescence value on addition of substrate metabolite (picALuc [1]; NP-40 (+) 0.01%)	suppression of the decreased ratio in the luminescence value by addition of a surfactant (picALuc [1])	luminescence value on addition of substrate metabolite (picALuc [1]; NP-40 (−))	maximum value of the normalized luminescence intensity (NanoLuc)	maximum value of the normalized luminescence intensity (picALuc [4])	further results
O=c1[nH]cc(-c2ccc(O)cc2)nc1Cc1ccccc1 [CTO, 3-benzyl-5-(4-hydroxyphenyl) pyrazin-2 (1H)-one]	a decrease in the luminescence value was small	a tendency to significantly suppress the decreased ratio	a decrease in the luminescence value was observed			
Nc1ncc(-c2ccc(O)cc2)nc1Cc1ccccc1 [CTM, coelenteramine]	a decrease in the luminescence value was clearly observed; also recorded: a decrease in the luminescence value was small	no significant suppression was observed	the luminescence value significantly decreased			
poly(oxyethylene)=octylphenyl ether [NP-40]				enhancement of the luminescence intensity was also observed	enhancement of the luminescence intensity was also observed	change in luminescence intensity over time (picALuc [2]): sustained luminescence and enhancement of the luminescence intensity were observed; amount of CTM produced when the surfactant was added (picALuc [3]): decreased; amount of CTMD produced when the surfactant was added (picALuc [3]): increased; amount of CTO produced when the surfactant was added (picALuc [3]): remained almost unchanged; amount of nCTZ consumed when the surfactant was added (picALuc [3]): increased; maximum value of the relative light unit versus when NP-40 was not added ([5]; 0.1% NP-40): 2.2 times; integrated value of the relative light unit versus when NP-40 was not added ([5]; 0.1% NP-40, integrated for 30 minutes after addition of substrate solution): 3.2 times; maximum value of the relative light unit and sustained luminescence ([5]; NP-40 0.002 to 0.2%): an increase in the maximum value of the relative light unit and the sustained luminescence were observed dependently on the concentration
O=C(Cc1ccc(O)cc1)Nc1ncc(-c2ccc(O)cc2)nc1Cc1ccccc1 [CTMD, coelenteramide]		a tendency to significantly suppress the decreased ratio	the luminescence value significantly decreased			
CC(CCC(=O)NCCC[N+](C)(C)CCCS(=O)(=O)O)C1CCC2C3C(O)CC4CC(O)CCC4(C)C3CC(O)C12C (centres unmarked) [CHAPS]				enhancement of the luminescence intensity was also observed	enhancement of the luminescence intensity was also observed	
